Here are results for 11 compounds from ChEMBL document CHEMBL1141681, “Bradykinin B1 receptor antagonists: an alpha-hydroxy amide with an improved metabolism profile” (Bioorg Med Chem Lett, 2008).

Series [1] concerns the target T1, B1 bradykinin receptor (Homo sapiens, UniProt P46663).
T1 sequence (P46663 whole entry): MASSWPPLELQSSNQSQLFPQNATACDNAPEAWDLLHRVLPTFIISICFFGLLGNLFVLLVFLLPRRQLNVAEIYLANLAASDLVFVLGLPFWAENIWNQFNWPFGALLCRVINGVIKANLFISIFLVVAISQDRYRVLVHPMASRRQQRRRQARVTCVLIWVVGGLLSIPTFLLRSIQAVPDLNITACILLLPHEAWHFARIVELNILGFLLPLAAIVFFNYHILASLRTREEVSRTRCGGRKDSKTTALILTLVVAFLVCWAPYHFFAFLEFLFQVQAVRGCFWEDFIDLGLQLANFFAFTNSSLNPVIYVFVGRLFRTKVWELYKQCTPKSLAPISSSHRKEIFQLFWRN
The experiment in a line: Displacement of [3H]des-arg10leu9kallidin from human bradykinin B1 receptor expressed in CHO cells by Wallac beta-plate scintillation counting. Format: cell-based. For orientation: Displacement assays read how much labelled ligand stays bound in the presence of the test substance.

Series [2] can be described thus: Ratio of permeability from basolateral to apical side to apical to basolateral side in pig L-MDR1 cells overexpressing human MDR1 at 5 uM after 3 hrs by LC/MS/MS analysis. To be noted: l-mdr1, 3 h. Format: ADME, cell-based, Sus scrofa.
Series [3] deals with MDR1 (human). The experiment in a line: (§1) Apparent permeability across pig L-MDR1 cells overexpressing human MDR1 at 5 uM after 3 hrs by LC/MS/MS analysis. Format: ADME, cell-based, Sus scrofa. To be noted: LLC-PK1.
A short description of series [4]: (§2) Half life in mongrel dog at 3 mg/kg, po and 1 mg/kg, iv. Format: ADME, organism-based, Canis lupus familiaris. The conditions noted are these: mongrel, in vivo.
The nature of series [5]: Clearance in mongrel dog at 3 mg/kg, po and 1 mg/kg, iv. Format: ADME, organism-based, Canis lupus familiaris. To be noted: in vivo.
Series [6] is described as follows: Oral bioavailability in Sprague-Dawley rat at 10 mg/kg. To be noted: in vivo. Format: ADME, organism-based.
Series [7] in a line: Half life in Sprague-Dawley rat at 10 mg/kg, po and 2 mg/kg, iv. The conditions noted are these: in vivo. Format: ADME, organism-based.
A short description of series [8]: Clearance in Sprague-Dawley rat at 10 mg/kg, po and 2 mg/kg, iv. Format: ADME, organism-based. To be noted: in vivo.
The target in series [9] is Rattus norvegicus. The experiment in a line: Ex vivo displacement of [35S]N-{2-[4-(4,5-dihydro-1H-imidazol-2-yl)phenyl]ethyl}-2-[(2R)-1-(2-naphthylsulfonyl)-3-oxo-1,2,3,4-tetrahydroquinoxalin-2-yl]acetamide from human bradykinin B1 receptor expressed in iv dosed Sprague-Dawley rat brain by liquid scintillation counting. Format: functional, organism-based.
Series [10] can be described thus: Oral bioavailability in mongrel dog at 3 mg/kg. Format: ADME, organism-based, Canis lupus familiaris. The conditions noted are these: in vivo.
A short description of series [11]: Ratio of drug level in brain to plasma of african green monkey at 2 mg/kg, iv after 30 mins by LC/MS/MS analysis. To be noted: chlorocebus aethiops, brain and plasma. Also on record: dose 2 mg/kg, route intravenous. Format: ADME, organism-based.
The nature of series [12]: as §1. Format: ADME, cell-based, Sus scrofa. The conditions noted are these: l-mdr1, 3 h, 5 µM, 3 h.
Series [13] relates to Canis familiaris. The series is described as §2. Format: ADME, organism-based, Canis lupus familiaris. The conditions noted are these: in vivo.

As a reminder, the Ki is the dissociation constant of the complex between target and ligand, obtained from inhibition or displacement. By Papp is commonly meant a coefficient for how fast a substance crosses the barrier. In general, half-life refers to how long it takes for the measured level to halve. Broadly, the bioavailability is the share of a dose that reaches the circulation, judged against a reference dose that is usually intravenous. Usually Kp stands for the ratio of the level in a tissue or fluid to that in plasma or blood.

`C[C@@H](NC(=O)C1(O)CCC(=O)C1)c1ncc(-c2cc(Cl)cc(F)c2-c2nnn(C)n2)cc1F` (stereo partly specified) displayed a Ki in series [1] of 0.67 nM. Moreover, the Ratio in series [2] is reported as 16. Moreover, the Papp at 3 h, 5 µM in series [3] was found to be 31 ×10⁻⁶ cm/s. Further, in series [4], the half-life was 9.8 h. In [5], this compound displayed a clearance of 0.3 mL/min/kg.

Take `C[C@@H](NC(=O)C1(O)CCOCC1)c1ncc(-c2cc(Cl)cc(F)c2-c2nnn(C)n2)cc1F`: the Ki in series [1] was determined as 0.96 nM. Moreover, in [2], the Ratio is given as 8.2. Besides, in series [3], the Papp at 3 h, 5 µM is 24 ×10⁻⁶ cm/s.

`C[C@@H](NC(=O)C1(O)CCS(=O)(=O)C1)c1ncc(-c2cc(Cl)cc(F)c2-c2nnn(C)n2)cc1F` (stereo partly specified) gave a Ki in [1] of 0.69 nM. Also, in series [2], the Ratio worked out at 29. Also, the apparent permeability coefficient (Papp) at 3 h, 5 µM in [3] amounted to 22 ×10⁻⁶ cm/s. In series [4], this compound gave a half-life of 9.9 h. Also, the clearance in [5] was 0.5 mL/min/kg.

For the compound `C[C@@H](NC(=O)C1(O)CCCC1)c1ncc(-c2cc(Cl)cc(F)c2-c2nnn(C)n2)cc1F`, the figures for the Ki in series [1] and in series [9] were 0.48 nM and 214 nM, respectively. Besides, in [2], the Ratio is given as 2.1. Also, the Papp at 3 h, 5 µM in series [3] amounted to 29 ×10⁻⁶ cm/s. Besides, the half-life in [4] is 4.7 h; in series [7], 5.5 h. For the same compound, the results for the clearance in [5] and in series [8] were 0.6 mL/min/kg and 10 mL/min/kg, respectively. In series [6], this compound yielded a bioavailability of 26%.

In the case of `Cc1nc(-c2c(F)cc(Cl)cc2-c2cnc([C@@H](C)NC(=O)[C@@](C)(O)C(F)(F)F)c(F)c2)no1`, the apparent permeability (Papp) at 3 h, 5 µM in series [3] was 27 ×10⁻⁶ cm/s. Further, the clearance in series [5] was 0.5 mL/min/kg.

In series [1], `C[C@@H](NC(=O)C1(O)CC[S+]([O-])C1)c1ncc(-c2cc(Cl)cc(F)c2-c2nnn(C)n2)cc1F` (stereo partly specified) showed a Ki of 1.6 nM. In addition, the Ratio in [2] amounted to 14.3. For the same compound, the Papp at 3 h, 5 µM in [3] is 24 ×10⁻⁶ cm/s. Besides, the half-life in series [4] was 3.1 h. In series [5], this compound showed a clearance of 2.3 mL/min/kg.

The compound `C[C@@H](NC(=O)[C@@](C)(O)C(F)(F)F)c1ncc(-c2cc(Cl)cc(F)c2-c2noc(CO)n2)cc1F` came in with a Ki in series [1] of 0.8 nM.

As to `C[C@@H](NC(=O)C1(O)CCC(F)(F)CC1)c1ncc(-c2cc(Cl)cc(F)c2-c2nnn(C)n2)cc1F`, the Ki in series [1] came out at 0.41 nM; in [9], 140 nM. Moreover, the Ratio in series [2] was 2. For the same compound, the Papp at 3 h, 5 µM in [3] stood at 31 ×10⁻⁶ cm/s. Further, the bioavailability in series [10] came out at 91%; in series [6] it was 62%. For the same compound, the half-life was 20.3 h in [4] and 5.6 h in series [7]. The clearance worked out at 1 mL/min/kg in [5] and 2.2 mL/min/kg in [8]. Besides, in series [11], the Kp at 0.5 h came to 0.63.

As for `CC(NC(=O)C1(O)CCC(F)(F)C1)c1ncc(-c2cc(Cl)cc(F)c2-c2nnn(C)n2)cc1F` (stereo in doubt; 11g), the Ki in [1] came out at 0.67 nM; in series [9], 120 nM. In addition, the Ratio in series [2] (3 h) is 1.9. In addition, the Papp in series [12] came to 32 ×10⁻⁶ cm/s. Besides, the bioavailability turned out to be 85% in series [10] and 96% in series [6]. Moreover, in series [13], the t1/2 is 19 h. Further, in series [7], the half-life is 4.1 h. The clearance in [8] was determined as 5.2 mL/min/kg. Moreover, in series [11], the Kp at 0.5 h was found to be 0.55.

In series [1], `CC(NC(=O)C1(O)CCC(F)(F)C1)c1ncc(-c2cc(Cl)cc(F)c2-c2nnn(C)n2)cc1F` (stereo in doubt; 11f) gave a Ki of 1 nM. For the same compound, the Ratio in series [2] (3 h) was 2.6. Moreover, the Papp at 3 h, 5 µM in series [3] was determined as 29 ×10⁻⁶ cm/s. The same compound registered a t1/2 in series [13] of 3 h. The clearance in [5] is 0.3 mL/min/kg.

The compound `C[C@@H](NC(=O)C1(O)CCSC1)c1ncc(-c2cc(Cl)cc(F)c2-c2nnn(C)n2)cc1F` (stereo partly specified) returned a Ki in series [1] of 0.39 nM. For the same compound, the Ratio in [2] is recorded as 2.9. Further, in series [3], the Papp at 3 h, 5 µM stood at 31 ×10⁻⁶ cm/s. The same compound showed a half-life in series [4] of 5.4 h. In [5], this compound registered a clearance of 3.2 mL/min/kg.
